*1 amine or outer side, *2 acyl side, *3 side chain or, on linkers, in order; H or OH if unused. Where no end group is shown, it is not given here. [ ]: non-standard residue; d: D form. Cys(Bzl) = L-S-benzyl-cysteine, O=C([C@H](CSCc1ccccc1)N[*:1])[*:2]; Phe(3-Me) = Cc1cccc(C[C@H](N)C(=O)O)c1; AllylGly = C=CC[C@H](N)C(=O)O; Phg = N[C@H](C(=O)O)c1ccccc1; Tle = CC(C)(C)[C@H](N)C(=O)O; hSer = N[C@@H](CCO)C(=O)O
Columns and labels:
[1] = tested on: CaCo2 monolayers; assay: Epithelial flux of Lucifer Yellow through cell monolayer; format: cell-based; set-up: key to Enhanced LY permeability: + indicates an enhancement of the permeability of the tight junctions were observed; − indicates no enhancement of permeability was observed; details: Lucifer Yellow flux, Caco-2 monolayer
In short: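 Caco-2 cells (passage 40-60) grown 21-28 days on Transwell filters, equilibrated 30 min at 37 °C in HBSS-HEPES pH 7.4; Lucifer Yellow with test compound applied apically, n=3 filters. Basolateral samples at 60, 120, 180 min read by fluorescence at 485/535 nm against standard curve; TEER also measured.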

[2] = tested on: CaCo2 monolayers; assay: Trans Epithelial Electric Resistance (TEER) across cell monolayer; format: cell-based; set-up: key to Reduced TEER: + indicates an enhancement of the permeability of the tight junctions were observed; − indicates no enhancement of permeability was observed; details: Caco-2 monolayer
In short: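 Caco-2 cells, passage 40-60, grown 21-28 days on Transwell filters, equilibrated 30 min at 37° C in MHBSS pH 7.4. Test compound with Lucifer Yellow applied apically (n=3), incubated at 37° C with 50 RPM shaking; TEER measured at baseline and at 30, 60, 120 and 180 min.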

| Substance | Enhanced LY permeability [1] | Reduced TEER [2] |
| --- | --- | --- |
| 125 (FLIGRL-NH2; also: peptide conjugate) [compound 125] | + | + |
| 195 (D[AllylGly]IGRL-NH2; N-terminus assumed; SMILES C=CC[C@H](NC(=O)[C@@H](N)CC(=O)O)C(=O)N[C@H](C(=O)NCC(=O)N[C@@H](CCCNC(=N)N)C(=O)N[C@@H](CC(C)C)C(N)=O)[C@@H](C)CC) [compound 195] | − | − |
| 157 (F[Tle]IGRL-OH; not fully specified; also: peptide conjugate, Xaa: 'may be' L-tert-butylglycine) [compound 157] | + | + |
| 136 (FIIGRL; also: peptide conjugate) [compound 136] | + | + |
| 206 (F[AllylGly]LGRL-NH2; N-terminus assumed; SMILES C=CC[C@H](NC(=O)[C@@H](N)Cc1ccccc1)C(=O)N[C@@H](CC(C)C)C(=O)NCC(=O)N[C@@H](CCCNC(=N)N)C(=O)N[C@@H](CC(C)C)C(N)=O) [compound 206] | + | + |
| 80 (SLIGRL-NH2; not fully specified; printed as Ser-Leu-Ile-Gly-Arg-Leu-NH2) [compound 80] | + | + |
| 174 ([Phe(3-Me)]FIGRL; not fully specified; also: peptide conjugate) [compound 174] | − | − |
| 124 (FDIGRL; also: peptide conjugate) [compound 124] | − | − |
| 128 (FGIGRL; also: peptide conjugate) [compound 128] | + | − |
| 170 (F[hSer][dI]GR-NH2; also: peptide conjugate) [compound 170] | − | − |
| 132 (FNIGRL; also: peptide conjugate) [compound 132] | − | + |
| 154 (F[Phg]IGRL-OH; not fully specified; printed as Phe-Phg-Ile-Gly-Arg-Leu-OH; also: peptide conjugate, Xaa: 'may be' L-phenylglycine) [compound 154] | + | + |
| 130 (FEIGRL; also: peptide conjugate) [compound 130] | − | − |
| 198 (A[AllylGly]IGRL-NH2; N-terminus assumed; SMILES C=CC[C@H](NC(=O)[C@H](C)N)C(=O)N[C@H](C(=O)NCC(=O)N[C@@H](CCCNC(=N)N)C(=O)N[C@@H](CC(C)C)C(N)=O)[C@@H](C)CC) [compound 198] | − | − |
| 152 (F[Cys(Bzl)]IGRL; also: peptide conjugate, Xaa: 'may be' L-S-benzyl-cysteine) [compound 152] | − | − |
| 201 (R[AllylGly]IGRL-NH2; N-terminus assumed; SMILES C=CC[C@H](NC(=O)[C@@H](N)CCCNC(=N)N)C(=O)N[C@H](C(=O)NCC(=O)N[C@@H](CCCNC(=N)N)C(=O)N[C@@H](CC(C)C)C(N)=O)[C@@H](C)CC) [compound 201] | − | − |

Reference: patent US20120027720A1, “PEPTIDE CONJUGATES” (priority 2008, published 2012)
